These cell lines were tested with Cc1ccc(Nc2nccc(N(C)c3ccc4c(C)n(C)nc4c3)n2)cc1S(N)(=O)=O [Pazopanib] + Nc1nc2[nH]cc(CCc3ccc(C(=O)N[C@@H](CCC(=O)O)C(=O)O)cc3)c2c(=O)[nH]1 [Pemetrexed] (partner 0.2 µM) (assay: relative viability (nuclei count vs DMSO), 5 days (fraction); higher = more cells survive). Settings: first compound 1 µM.
Summary of the method: (§1)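 A single step with final 0.05% Triton X-100, 1% formaldehyde and 1 ug/ml Hoechst fixed the cells and stained nuclei 5 days after treatment. Lung cancer cell lines in 1536-well plates had been treated by pin tool the day after seeding with one drug alone or a fixed anchor-drug dose plus five library-drug doses (not always all listed) in √10 steps, and nuclei were counted on 4× images. Relative viability is the ratio of nuclei in treated wells to nuclei in vehicle wells, taken as the median of duplicate plates.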

In order of falling relative viability:
1. NCI-H661  0.861
2. NCI-H1563  0.81
3. NCI-H650  0.798
4. NCI-H1792  0.79
5. SW 900  0.5

What follows are cell lines tested with Cc1ccc(Nc2nccc(N(C)c3ccc4c(C)n(C)nc4c3)n2)cc1S(N)(=O)=O [Pazopanib] + COc1cc2c(Oc3ccc(NC(=O)C4(C(=O)Nc5ccc(F)cc5)CC4)cc3F)ccnc2cc1OCCCN1CCOCC1 [Foretinib] (partner 0.25 µM) in the same assay as above. Settings: first compound 0.01 µM.
Summary of the method: as §1

In order of rising relative viability:
1. EBC-1  0.095
2. NCI-H1703  0.306
3. H3255  0.625
4. LCLC-103H  0.651
5. NCI-H727  0.698
6. NCI-H358  0.726
7. NCI-H1563  0.823
8. NCI-H1623  0.835
9. SW 900  0.843
10. ABC-1  0.843
11. Calu-6  0.89
12. LOU-NH91  0.898
13. A549  0.905
14. COR-L23  0.916
15. COR-L 105  0.926
16. ChaGo-K-1  0.934
17. NCI-H1395  0.947
18. PC-14  0.962
19. NCI-H2085  0.972
20. NCI-H2342  0.981
21. NCI-H838  0.996
22. NCI-H661  0.996
23. NCI-H1666  0.998
24. NCI-H3122  0.999
25. HCC-366  1.01
26. NCI-H650  1.02
27. HOP-62  1.05
28. NCI-H1299  1.07
29. NCI-H1650  1.12
30. NCI-H647  1.13
31. NCI-H2126  1.16
32. IA-LM  1.17
33. NCI-H2087  1.27

Same assay, conditions: first compound 0.03162 µM

In order of rising relative viability:
1. EBC-1  0.104
2. NCI-H1703  0.358
3. NCI-H1993  0.69
4. NCI-H596  0.723
5. H3255  0.838
6. NCI-H1623  0.846
7. COR-L 105  0.87
8. SW 900  0.886
9. LCLC-103H  0.897
10. ChaGo-K-1  0.909
11. NCI-H358  0.91
12. LOU-NH91  0.92
13. NCI-H3122  0.932
14. Calu-6  0.954
15. HCC-366  0.956
16. NCI-H2087  0.966
17. NCI-H1563  0.966
18. PC-14  0.972
19. NCI-H647  0.974
20. NCI-H727  0.981
21. EMC-BAC-2  0.991
22. NCI-H2342  1
23. NCI-H1666  1.01
24. NCI-H838  1.02
25. COR-L23  1.03
26. A549  1.03
27. HOP-62  1.04
28. NCI-H2085  1.06
29. NCI-H1299  1.06
30. ABC-1  1.06
31. NCI-H1395  1.07
32. IA-LM  1.07
33. NCI-H661  1.08
34. NCI-H650  1.11
35. NCI-H2126  1.18
36. NCI-H1650  1.2
37. LK-2  1.2

Same assay, conditions: first compound 0.1 µM

In order of falling relative viability:
1. NCI-H2126  1.26
2. HOP-62  1.2
3. A549  1.16
4. NCI-H1650  1.15
5. COR-L 105  1.15
6. NCI-H647  1.14
7. IA-LM  1.13
8. NCI-H1299  1.13
9. PC-14  1.11
10. NCI-H2342  1.09
11. LK-2  1.07
12. NCI-H727  1.04
13. NCI-H1563  1.04
14. NCI-H661  1.04
15. NCI-H2087  1.03
16. NCI-H838  1.02
17. EMC-BAC-2  1.01
18. NCI-H2085  1.01
19. NCI-H1395  1.01
20. ChaGo-K-1  1.01
21. NCI-H3122  1.01
22. NCI-H1666  0.995
23. NCI-H650  0.995
24. HCC-366  0.974
25. LOU-NH91  0.945
26. SW 900  0.941
27. NCI-H2347  0.934
28. Calu-6  0.93
29. COR-L23  0.922
30. NCI-H596  0.9
31. NCI-H358  0.838
32. NCI-H1623  0.834
33. H3255  0.794
34. NCI-H1993  0.783
35. LCLC-103H  0.734
36. NCI-H1703  0.362
37. EBC-1  0.0934

Same assay, conditions: first compound 0.3162 µM

In order of rising relative viability:
1. EBC-1  0.103
2. NCI-H1703  0.396
3. NCI-H1993  0.728
4. NCI-H596  0.815
5. LCLC-103H  0.819
6. H3255  0.84
7. Calu-6  0.848
8. SW 900  0.876
9. ChaGo-K-1  0.884
10. NCI-H1623  0.896
11. NCI-H650  0.898
12. NCI-H647  0.925
13. NCI-H1395  0.931
14. NCI-H2342  0.939
15. NCI-H2085  0.96
16. LOU-NH91  0.967
17. HCC-366  0.969
18. NCI-H1563  0.969
19. ABC-1  0.975
20. A549  0.985
21. COR-L23  0.986
22. NCI-H3122  0.992
23. NCI-H661  1
24. EMC-BAC-2  1.02
25. NCI-H1666  1.02
26. PC-14  1.03
27. COR-L 105  1.04
28. IA-LM  1.04
29. NCI-H1650  1.05
30. NCI-H2126  1.06
31. NCI-H838  1.08
32. HOP-62  1.08
33. NCI-H1299  1.09
34. LK-2  1.11
35. NCI-H2087  1.13
36. NCI-H2347  1.21
37. NCI-H727  1.23

Same assay, conditions: first compound 1 µM

In order of falling relative viability:
1. NCI-H838  1.18
2. NCI-H1650  1.09
3. NCI-H1623  0.911
4. NCI-H2342  0.755
5. NCI-H1703  0.337
6. EBC-1  0.0962

— the supplement of paper PMC10307832
